Data set [1] can be described thus: Study 302 (BHV3000-302), Phase 3, rimegepant 75 mg tablet vs placebo, acute treatment of migraine. Type of data set: in vivo, human. The source says:
Clinical Trial—BHV3000-302 : Phase 3: Double-Blind, Randomized, Placebo-Controlled, Safety and Efficacy Trial of BHV-3000 (Rimegepant) for the Acute Treatment of Migraine (ClinicalTrials.gov Identifier: NCT03237845) • Study Type: Interventional (Clinical Trial) • Actual Enrollment: 1503 participants • Allocation: Randomized • Intervention Model: Parallel Assignment • Intervention Model Description: Double-blind to Sponsor, Investigator and Subject • Masking: Triple (Participant, Care Provider, Investigator) • Masking Description: Double-blind to Sponsor, Investigator and Subject • Primary Purpose: Treatment • Official Title: BHV3000-302: Phase 3: Double-Blind, Randomized, Placebo-Controlled, Safety and Efficacy Trial of BHV-3000 (Rimegepant) for the Acute Treatment of Migraine • Actual Study Start Date : Jul. 26, 2017 • Primary Completion Date : Jan. 25, 2018 • Study Completion Date : Jan. 31, 2018 • 1. Pain Freedom of rimegepant (75 mg tablet) compared with placebo in the acute treatment of migraine will be measured using the number of evaluable subjects that report no pain at 2 hours post-dose. [Time Frame: Two hours post dose] • Pain will be measured on a 4 point Likert scale (0=none, 1=mild, 2=moderate, 3=severe) • 2. Freedom from the most bothersome symptom (MBS) of rimegepant (75 mg tablet) compared with placebo will be measured using the number of evaluable subjects that report the absence of their MBS at 2 hours post-dose. [Time Frame: Two hours post dose] • The MBS (nausea, phonophobia or photophobia) will measured using a binary scale (0=absent, 1=present). • 1. […] [Time Frame: 2 hours -24 hours post-dose] • Sustained Pain Freedom as measured by a 4 point numeric rating scale (None, Mild, Moderate, Severe) • 2. Rimegepant (75 mg tablet) compared to placebo by tabulating the number of subjects that report the absence of photophobia at 2 hours post-dose in the subset of subjects that reported the presence of photophobia at headache baseline. [Time Frame: 2 hours post-dose] • Freedom from Photophobia • 3. Rimegepant (75 mg tablet) compared to placebo by tabulating the number of subjects that report the absence of phonophobia at 2 hours post-dose in the subset of subjects that reported the presence of phonophobia at headache baseline. [Time Frame: 2 hours post-dose] • Freedom from Phonophobia • 4. To measure rimegepant (75 mg tablet) compared to placebo on Pain Relief, at 2 hours post-dose, that report a pain level of moderate or severe at baseline and then report a pain level of none or mild. [Time Frame: 2 hours post-dose] • Pain Relief as measured by a 4 point numeric rating scale (None, Mild, Moderate, Severe) • 5. Freedom from Nausea will by tabulating the number of subjects that report the absence of nausea at 2 hours post-dose in the subset of subjects that reported the presence of nausea at headache baseline. [Time Frame: 2 hours post-dose] • Freedom from Nausea • 6. To measure rimegepant (75 mg tablet) compared to placebo on the probability of requiring rescue medication will be assessed using the number of subjects that take rescue medication within […] administration of study medication (BHV3000 or placebo). [Time Frame: up to 24 hours post-dose] • Requiring Rescue Medication • 7. […] [Time Frame: 2 hours-48 hours post-dose] • Sustained Pain Freedom as measured by a 4 point numeric rating scale (None, Mild, Moderate, Severe) • 8. […] [Time Frame: 2 hours-24 hours post-dose] • Sustained Pain Relief as measured by a 4 point numeric rating scale (None, Mild, Moderate, Severe) • 9. […] [Time Frame: 2 hours-48 hours post-dose] • Sustained Pain Relief as measured by a 4 point numeric rating scale (None, Mild, Moderate, Severe) • 10. Rimegepant (75 mg tablet) relative to placebo on the proportion of subjects able to function normally, at 2 hours, using the number of subjects that self-report as “normal” on the functional disability scale. [Time Frame: 2 hours post-dose] • Functional Disability Score • 11. […]

Data set [2] in a line: Pooled liver function test profile, Studies 301 and 302. In kind it is in vivo, human. Conditions: pooled Studies 301+302; n = 1089. As for the experimental part:
Results from Clinical Trials—The study results from the clinical studies described in Example 2 and Example 3 are set forth in FIG. 1, FIG. 2 and Table 2, Table 3 and Table 4.
(§1) In a double-blind, randomized, placebo-controlled, multicenter study (Study 301, NCT03235479) adults ≥18 years of age with at least a 1-year history of ICHD 3-beta migraine were eligible to participate. Following a 3- to 28-day screening period, subjects were randomized to receive rimegepant 75 mg or matching placebo and instructed to treat a single migraine attack with 1 dose of the blinded study drug (rimegepant or placebo) when headache pain reached moderate or severe intensity. The coprimary endpoints were pain freedom at 2 hours postdose and freedom from the most bothersome symptom (MBS) at 2 hours postdose. Safety assessments included adverse events (AEs), ECGs, vital signs, physical measurements, and routine laboratory tests, including assessment of liver function. Unless stated otherwise, values presented are mean ±SD.
as §1, with “302, NCT03237845)” for “301, NCT03235479)”

Here are results for one compound from patent US20200383969A1, “RIMEGEPANT FOR CGRP RELATED DISORDERS” (Biohaven Pharmaceutical Holding Company Ltd., priority 2018, published 2020).

As for `N[C@@H]1c2cccnc2[C@H](OC(=O)N2CCC(n3c(=O)[nH]c4ncccc43)CC2)CC[C@H]1c1cccc(F)c1F` [Rimegepant, [(5S,6S,9R)-5-amino-6-(2,3-difluorophenyl)-6,7,8,9-tetrahydro-5H-cyclohepta[b]pyridin-9-yl] 4-(2-oxo-3H-imidazo[4,5-b]pyridin-1-yl)piperidine-1-carboxylate], in data set [1], the “SAEs related to the study drug” value was “No SAEs”. Further, in data set [1] (75 mg tablet), the “AE nausea, incidence” value came to 1.8%; the “AE nausea, n/N” value is 10/543; the “AE urinary tract infection, incidence” value is on record as 1.5%; the “AE urinary tract infection, n/N” value is recorded as 8/543. Moreover, in data set [1] (75 mg tablet), the “Bilirubin elevations greater than 2 times ULN” value was “no bilirubin elevations”; the “Serum ALT or AST > ULN, n/N” value is on record as 13/543; the “Serum ALT or AST > ULN, subjects” value was determined as 2.4%; the “Transaminase level greater than 3 times ULN” value is given as “No subject”. Further, the “Normal function at 2 hours (functional disability) vs placebo” value in data set [1] (P<0.0001) is “greater proportion”. For the same compound, the “Serious AEs, number of subjects” value in data set [1] (back pain) worked out at 1. For the same compound, the “Sustained pain relief from 2 through 48 hours postdose vs placebo” value in data set [1] (single dose, no rescue medication, P<0.0001) was “superiority versus placebo”. Besides, in data set [1] (single dose, no rescue medication, P=0.0181), the “Sustained pain freedom from 2 through 48 hours postdose vs placebo” value is on record as “superiority versus placebo”. In data set [2], the “ALT >3 × ULN, subjects” value worked out at 0.1%; the “ALT >ULN, subjects” value is recorded as 2.0%; the “AST >3 × ULN, subjects” value is on record as 0.1%; the “AST >ULN, subjects” value turned out to be 1.1%.
